Data reported in ChEMBL document CHEMBL2417377, “Hit-to-lead optimization and kinase selectivity of imidazo[1,2-a]quinoxalin-4-amine derived JNK1 inhibitors” (Bioorg Med Chem Lett, 2013).

Key:
Conditions in all cases: PC-3
[1] = molecular target: T1, Ephrin type-B receptor 4 (Homo sapiens) (UniProt P54760); test: Inhibition of EphB4 in human PC3 cell lysates at 10 uM using desthiobiotin-tagged ATP probe AX9989 followed by trypsinization by LC/MS analysis
T1 sequence (whole entry): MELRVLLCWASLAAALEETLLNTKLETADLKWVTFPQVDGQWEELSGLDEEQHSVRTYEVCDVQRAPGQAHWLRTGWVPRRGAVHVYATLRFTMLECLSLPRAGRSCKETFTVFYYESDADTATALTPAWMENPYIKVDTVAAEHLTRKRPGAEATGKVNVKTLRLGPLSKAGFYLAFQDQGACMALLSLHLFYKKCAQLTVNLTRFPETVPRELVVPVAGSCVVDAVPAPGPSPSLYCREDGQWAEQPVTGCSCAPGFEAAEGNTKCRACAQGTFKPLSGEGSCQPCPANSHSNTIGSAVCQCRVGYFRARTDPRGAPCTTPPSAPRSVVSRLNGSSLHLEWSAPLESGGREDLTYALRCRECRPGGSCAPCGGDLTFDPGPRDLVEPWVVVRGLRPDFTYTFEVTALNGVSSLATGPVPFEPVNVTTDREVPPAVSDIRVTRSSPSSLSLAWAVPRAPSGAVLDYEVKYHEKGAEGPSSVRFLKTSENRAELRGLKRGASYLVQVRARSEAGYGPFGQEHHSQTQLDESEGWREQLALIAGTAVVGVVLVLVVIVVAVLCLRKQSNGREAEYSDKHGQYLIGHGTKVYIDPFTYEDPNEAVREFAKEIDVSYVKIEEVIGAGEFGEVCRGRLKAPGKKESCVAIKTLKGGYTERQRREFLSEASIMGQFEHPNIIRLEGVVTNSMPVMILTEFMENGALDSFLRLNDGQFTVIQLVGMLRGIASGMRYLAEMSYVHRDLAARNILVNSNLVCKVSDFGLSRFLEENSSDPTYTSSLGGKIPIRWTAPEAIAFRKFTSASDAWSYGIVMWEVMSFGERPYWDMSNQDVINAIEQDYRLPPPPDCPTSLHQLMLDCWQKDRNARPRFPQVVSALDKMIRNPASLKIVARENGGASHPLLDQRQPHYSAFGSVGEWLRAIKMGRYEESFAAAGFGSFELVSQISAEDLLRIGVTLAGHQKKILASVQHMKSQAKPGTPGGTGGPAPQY

[2] = molecular target: Serine/threonine-protein kinase Nek7 (Homo sapiens) (UniProt Q8TDX7); test: Inhibition of NEK7 in human PC3 cell lysates at 10 uM using desthiobiotin-tagged ATP probe AX9989 followed by trypsinization by LC/MS analysis
Sequence of Serine/threonine-protein kinase Nek7 (Homo sapiens) (Q8TDX7 whole entry, looked up): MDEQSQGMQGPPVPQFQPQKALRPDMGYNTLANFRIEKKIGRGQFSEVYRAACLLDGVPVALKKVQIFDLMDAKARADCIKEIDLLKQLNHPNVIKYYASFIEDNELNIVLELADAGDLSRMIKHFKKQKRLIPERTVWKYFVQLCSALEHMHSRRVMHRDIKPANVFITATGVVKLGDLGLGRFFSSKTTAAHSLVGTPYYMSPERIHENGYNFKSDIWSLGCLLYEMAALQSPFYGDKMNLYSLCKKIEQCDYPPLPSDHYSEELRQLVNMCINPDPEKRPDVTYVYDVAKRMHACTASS

[3] = molecular target: Serine/threonine-protein kinase WNK4 (Homo sapiens) (UniProt Q96J92); test: Inhibition of Wnk4 in human PC3 cell lysates at 10 uM using desthiobiotin-tagged ATP probe AX9989 followed by trypsinization by LC/MS analysis
Sequence of Serine/threonine-protein kinase WNK4 (Homo sapiens) (Q96J92 whole entry): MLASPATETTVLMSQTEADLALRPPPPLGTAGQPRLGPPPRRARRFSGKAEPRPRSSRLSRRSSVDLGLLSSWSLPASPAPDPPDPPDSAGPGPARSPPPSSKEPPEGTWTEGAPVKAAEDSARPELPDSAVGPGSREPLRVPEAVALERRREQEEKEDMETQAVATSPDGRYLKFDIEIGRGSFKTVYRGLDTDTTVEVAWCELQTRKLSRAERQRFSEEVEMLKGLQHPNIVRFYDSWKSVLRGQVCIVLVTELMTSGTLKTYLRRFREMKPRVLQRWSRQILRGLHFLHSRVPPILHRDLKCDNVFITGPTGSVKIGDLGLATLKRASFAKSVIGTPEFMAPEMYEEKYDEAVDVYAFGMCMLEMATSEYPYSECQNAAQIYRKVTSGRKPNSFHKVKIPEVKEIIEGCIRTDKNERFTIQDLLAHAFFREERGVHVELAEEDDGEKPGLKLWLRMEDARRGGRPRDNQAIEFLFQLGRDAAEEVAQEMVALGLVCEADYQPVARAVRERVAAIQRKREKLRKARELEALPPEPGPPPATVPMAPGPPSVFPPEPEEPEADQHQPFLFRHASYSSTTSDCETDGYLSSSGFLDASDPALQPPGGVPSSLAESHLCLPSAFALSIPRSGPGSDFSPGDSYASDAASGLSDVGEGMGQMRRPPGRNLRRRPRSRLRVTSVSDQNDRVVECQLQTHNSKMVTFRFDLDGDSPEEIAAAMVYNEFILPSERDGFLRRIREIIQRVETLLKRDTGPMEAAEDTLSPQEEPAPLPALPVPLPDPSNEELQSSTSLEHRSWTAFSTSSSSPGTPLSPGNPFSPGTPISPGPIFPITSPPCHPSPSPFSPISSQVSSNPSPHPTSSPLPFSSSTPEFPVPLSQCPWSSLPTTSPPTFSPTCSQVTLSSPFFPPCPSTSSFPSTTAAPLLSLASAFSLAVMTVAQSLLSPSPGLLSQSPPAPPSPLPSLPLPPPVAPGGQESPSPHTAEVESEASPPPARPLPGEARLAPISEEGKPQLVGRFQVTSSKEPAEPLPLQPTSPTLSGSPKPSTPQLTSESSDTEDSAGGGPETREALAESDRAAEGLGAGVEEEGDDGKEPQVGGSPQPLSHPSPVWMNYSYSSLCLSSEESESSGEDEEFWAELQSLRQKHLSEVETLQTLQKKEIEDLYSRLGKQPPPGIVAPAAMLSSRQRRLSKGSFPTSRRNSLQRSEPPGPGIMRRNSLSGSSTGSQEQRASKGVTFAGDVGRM

[4] = molecular target: Serine/threonine-protein kinase tousled-like 2 (Homo sapiens) (UniProt Q86UE8); test: Inhibition of TLK2 in human PC3 cell lysates at 10 uM using desthiobiotin-tagged ATP probe AX9989 followed by trypsinization by LC/MS analysis
Sequence of Serine/threonine-protein kinase tousled-like 2 (Homo sapiens) (Q86UE8 whole entry, looked up): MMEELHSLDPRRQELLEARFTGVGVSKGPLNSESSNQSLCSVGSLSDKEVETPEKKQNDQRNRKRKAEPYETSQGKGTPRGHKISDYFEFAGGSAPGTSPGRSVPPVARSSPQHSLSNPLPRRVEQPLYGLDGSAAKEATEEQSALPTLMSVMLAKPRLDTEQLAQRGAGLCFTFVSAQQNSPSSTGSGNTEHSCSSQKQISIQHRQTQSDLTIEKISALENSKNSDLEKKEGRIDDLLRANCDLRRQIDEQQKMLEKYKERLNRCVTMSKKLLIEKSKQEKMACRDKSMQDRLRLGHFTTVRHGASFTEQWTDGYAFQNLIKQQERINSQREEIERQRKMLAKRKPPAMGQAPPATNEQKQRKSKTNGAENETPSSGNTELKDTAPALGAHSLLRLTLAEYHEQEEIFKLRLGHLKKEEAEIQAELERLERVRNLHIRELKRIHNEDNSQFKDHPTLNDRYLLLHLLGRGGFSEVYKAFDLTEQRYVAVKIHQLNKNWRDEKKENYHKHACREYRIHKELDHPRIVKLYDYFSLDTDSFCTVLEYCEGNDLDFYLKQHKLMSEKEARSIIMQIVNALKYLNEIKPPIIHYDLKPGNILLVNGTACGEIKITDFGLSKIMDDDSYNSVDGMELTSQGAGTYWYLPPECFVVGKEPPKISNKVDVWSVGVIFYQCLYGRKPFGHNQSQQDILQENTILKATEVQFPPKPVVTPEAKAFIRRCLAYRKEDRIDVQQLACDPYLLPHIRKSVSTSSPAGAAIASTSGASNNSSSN

[5] = molecular target: T2, Eukaryotic elongation factor 2 kinase (Homo sapiens) (UniProt O00418); test: Inhibition of eEF2K in human PC3 cell lysates at 10 uM using desthiobiotin-tagged ATP probe AX9989 followed by trypsinization by LC/MS analysis
T2 sequence (whole entry): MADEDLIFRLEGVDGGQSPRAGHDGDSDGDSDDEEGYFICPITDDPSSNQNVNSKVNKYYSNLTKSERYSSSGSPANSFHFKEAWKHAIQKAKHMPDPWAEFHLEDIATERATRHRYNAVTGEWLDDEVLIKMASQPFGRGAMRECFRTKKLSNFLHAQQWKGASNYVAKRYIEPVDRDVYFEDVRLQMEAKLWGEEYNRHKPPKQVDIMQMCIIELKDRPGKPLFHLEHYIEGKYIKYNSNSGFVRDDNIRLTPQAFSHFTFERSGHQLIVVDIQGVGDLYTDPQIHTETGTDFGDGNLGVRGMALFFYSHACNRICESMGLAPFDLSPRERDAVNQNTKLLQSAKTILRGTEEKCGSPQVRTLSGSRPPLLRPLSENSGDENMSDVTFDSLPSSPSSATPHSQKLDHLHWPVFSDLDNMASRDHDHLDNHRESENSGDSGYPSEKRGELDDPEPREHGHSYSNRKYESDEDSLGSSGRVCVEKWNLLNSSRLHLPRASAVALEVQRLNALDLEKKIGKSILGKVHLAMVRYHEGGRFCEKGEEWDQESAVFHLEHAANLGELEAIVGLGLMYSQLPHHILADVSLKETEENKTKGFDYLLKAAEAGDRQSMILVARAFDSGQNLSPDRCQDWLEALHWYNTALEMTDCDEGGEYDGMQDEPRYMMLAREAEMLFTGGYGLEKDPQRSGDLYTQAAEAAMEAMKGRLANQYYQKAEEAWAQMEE

[6] = molecular target: IKK epsilon/TBK1 (Homo sapiens) (UniProt Q14164+Q9UHD2); test: Inhibition of IKKepsilon/TBK1 in human PC3 cell lysates at 10 uM using desthiobiotin-tagged ATP probe AX9989 followed by trypsinization by LC/MS analysis; format: protein-complex assay
[7] = molecular target: Calcium/calmodulin-dependent protein kinase type II subunit gamma (Homo sapiens) (UniProt Q13555); test: Inhibition of CaMK2gamma in human PC3 cell lysates at 10 uM using desthiobiotin-tagged ATP probe AX9989 followed by trypsinization by LC/MS analysis
Sequence of Calcium/calmodulin-dependent protein kinase type II subunit gamma (Homo sapiens) (Q13555 whole entry): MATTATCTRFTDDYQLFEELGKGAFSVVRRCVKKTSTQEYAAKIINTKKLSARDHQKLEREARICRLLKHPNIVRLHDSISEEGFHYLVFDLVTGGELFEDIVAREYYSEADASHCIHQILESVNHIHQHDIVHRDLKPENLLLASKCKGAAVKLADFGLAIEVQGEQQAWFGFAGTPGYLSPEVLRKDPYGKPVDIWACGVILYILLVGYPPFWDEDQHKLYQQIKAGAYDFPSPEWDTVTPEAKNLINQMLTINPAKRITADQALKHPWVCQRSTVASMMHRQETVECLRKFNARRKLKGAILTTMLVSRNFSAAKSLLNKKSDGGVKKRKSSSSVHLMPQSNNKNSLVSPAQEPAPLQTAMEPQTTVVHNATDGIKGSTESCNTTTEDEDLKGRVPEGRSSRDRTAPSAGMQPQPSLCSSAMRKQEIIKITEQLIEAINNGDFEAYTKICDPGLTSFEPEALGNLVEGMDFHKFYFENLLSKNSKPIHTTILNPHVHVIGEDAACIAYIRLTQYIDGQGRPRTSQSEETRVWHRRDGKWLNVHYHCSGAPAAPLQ

[8] = molecular target: Focal adhesion kinase 1 (Homo sapiens) (UniProt Q05397); test: Inhibition of FAK in human PC3 cell lysates at 10 uM using desthiobiotin-tagged ATP probe AX9989 followed by trypsinization by LC/MS analysis
[9] = molecular target: Tyrosine-protein kinase Yes (Homo sapiens) (UniProt P07947); test: Inhibition of YES in human PC3 cell lysates at 10 uM using desthiobiotin-tagged ATP probe AX9989 followed by trypsinization by LC/MS analysis
Sequence of Tyrosine-protein kinase Yes (Homo sapiens) (P07947 2-543 limits assumed): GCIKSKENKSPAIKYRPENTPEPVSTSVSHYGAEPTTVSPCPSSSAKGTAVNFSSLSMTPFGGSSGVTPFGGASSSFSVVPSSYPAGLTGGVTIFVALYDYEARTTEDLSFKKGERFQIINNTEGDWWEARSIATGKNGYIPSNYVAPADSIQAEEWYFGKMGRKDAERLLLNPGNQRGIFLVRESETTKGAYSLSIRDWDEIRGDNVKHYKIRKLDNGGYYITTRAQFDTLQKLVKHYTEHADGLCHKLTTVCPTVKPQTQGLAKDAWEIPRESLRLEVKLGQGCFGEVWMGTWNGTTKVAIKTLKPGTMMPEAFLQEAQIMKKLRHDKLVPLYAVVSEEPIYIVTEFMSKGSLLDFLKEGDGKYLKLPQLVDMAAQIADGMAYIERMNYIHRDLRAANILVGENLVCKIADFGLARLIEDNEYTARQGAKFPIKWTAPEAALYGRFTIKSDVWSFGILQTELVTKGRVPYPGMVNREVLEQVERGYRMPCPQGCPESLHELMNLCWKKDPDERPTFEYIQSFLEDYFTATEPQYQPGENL

[10] = molecular target: Mitogen-activated protein kinase 1 (Homo sapiens) (UniProt P28482); test: Inhibition of Erk2 in human PC3 cell lysates at 10 uM using desthiobiotin-tagged ATP probe AX9989 followed by trypsinization by LC/MS analysis
Sequence of Mitogen-activated protein kinase 1 (Homo sapiens) (P28482 whole entry): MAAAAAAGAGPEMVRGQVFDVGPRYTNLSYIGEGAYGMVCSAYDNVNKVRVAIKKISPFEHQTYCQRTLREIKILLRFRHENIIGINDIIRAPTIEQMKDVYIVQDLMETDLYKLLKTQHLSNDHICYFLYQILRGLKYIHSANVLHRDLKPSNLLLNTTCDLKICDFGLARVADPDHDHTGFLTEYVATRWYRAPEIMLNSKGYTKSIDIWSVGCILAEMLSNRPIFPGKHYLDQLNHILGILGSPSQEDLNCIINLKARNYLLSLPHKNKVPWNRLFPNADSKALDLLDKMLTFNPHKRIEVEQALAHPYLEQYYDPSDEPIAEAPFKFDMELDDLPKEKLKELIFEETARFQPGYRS

[11] = molecular target: Serine/threonine-protein kinase Nek6 (Homo sapiens) (UniProt Q9HC98); test: Inhibition of NEK6 in human PC3 cell lysates at 10 uM using desthiobiotin-tagged ATP probe AX9989 followed by trypsinization by LC/MS analysis
[12] = molecular target: Serine/threonine-protein kinase 10 (Homo sapiens) (UniProt O94804); test: Inhibition of LOK in human PC3 cell lysates at 10 uM using desthiobiotin-tagged ATP probe AX9989 followed by trypsinization by LC/MS analysis
[13] = molecular target: AMPK alpha1/alpha2 (Homo sapiens) (UniProt P54646+Q13131); test: Inhibition of AMPKalpha1/AMPKalpha2 in human PC3 cell lysates at 10 uM using desthiobiotin-tagged ATP probe AX9989 followed by trypsinization by LC/MS analysis; format: protein-complex assay
Sequence of AMPK alpha1/alpha2 (Homo sapiens) (P54646 whole entry, looked up): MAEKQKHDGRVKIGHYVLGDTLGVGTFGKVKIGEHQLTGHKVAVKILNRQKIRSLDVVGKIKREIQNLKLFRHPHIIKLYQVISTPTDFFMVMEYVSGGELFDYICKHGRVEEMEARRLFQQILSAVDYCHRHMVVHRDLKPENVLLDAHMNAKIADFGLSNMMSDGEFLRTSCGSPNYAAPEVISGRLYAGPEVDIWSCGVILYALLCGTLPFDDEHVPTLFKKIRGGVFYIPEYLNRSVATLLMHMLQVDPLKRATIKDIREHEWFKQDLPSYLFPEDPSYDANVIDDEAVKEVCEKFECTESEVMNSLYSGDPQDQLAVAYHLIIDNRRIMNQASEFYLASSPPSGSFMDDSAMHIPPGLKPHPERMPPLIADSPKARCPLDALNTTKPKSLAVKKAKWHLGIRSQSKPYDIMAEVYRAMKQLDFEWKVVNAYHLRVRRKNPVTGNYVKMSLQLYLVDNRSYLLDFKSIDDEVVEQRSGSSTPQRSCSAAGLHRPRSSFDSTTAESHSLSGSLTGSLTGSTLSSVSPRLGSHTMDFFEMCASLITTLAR
Sequence of AMPK alpha1/alpha2 (Homo sapiens) (Q13131 whole entry, looked up): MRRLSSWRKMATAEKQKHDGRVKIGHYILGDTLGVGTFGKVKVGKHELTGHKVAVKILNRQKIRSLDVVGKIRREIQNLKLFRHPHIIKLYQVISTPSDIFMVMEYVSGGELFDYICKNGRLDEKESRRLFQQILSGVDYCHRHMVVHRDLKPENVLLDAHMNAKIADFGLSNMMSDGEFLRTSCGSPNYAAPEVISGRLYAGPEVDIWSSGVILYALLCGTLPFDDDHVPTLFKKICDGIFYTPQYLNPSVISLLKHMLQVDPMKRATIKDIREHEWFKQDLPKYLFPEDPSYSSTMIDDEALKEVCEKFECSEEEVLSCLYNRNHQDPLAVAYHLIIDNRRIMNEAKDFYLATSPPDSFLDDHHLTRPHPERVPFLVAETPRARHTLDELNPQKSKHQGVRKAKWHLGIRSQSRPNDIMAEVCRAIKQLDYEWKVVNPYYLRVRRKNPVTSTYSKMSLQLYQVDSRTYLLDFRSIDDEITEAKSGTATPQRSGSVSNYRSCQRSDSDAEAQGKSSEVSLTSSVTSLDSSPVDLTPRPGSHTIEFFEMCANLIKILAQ

Row | Compound | inhibition [1] [%] | inhibition [2] [%] | inhibition [3] [%] | inhibition [4] [%] | inhibition [5] [%] | inhibition [6] [%] | inhibition [7] [%] | inhibition [8] [%] | inhibition [9] [%] | inhibition [10] [%] | inhibition [11] [%] | inhibition [12] [%] | inhibition [13] [%]
1 | O=C(N[C@H](CO)c1ccccc1)c1ccc2nc(N[C@H]3CC[C@H](O)CC3)c3nccn3c2c1 | < 35 | < 35 | < 35 | < 35 | < 35 | < 35 | < 35 | < 35 | < 35 | < 35 | < 35 | < 35 | 40.1
2 | CC(C)(NC(=O)c1ccc2nc(N[C@H]3CC[C@H](O)CC3)c3nccn3c2c1)c1ccccc1 | < 35 | < 35 | < 35 | < 35 | < 35 | < 35 | < 35 | < 35 | < 35 | < 35 | < 35 | < 35 | < 35
3 | O=C(NC1(Cc2ccc(F)cc2)CC1)c1ccc2nc(N[C@H]3CC[C@H](O)CC3)c3nccn3c2c1 | < 35 | < 35 | < 35 | < 35 | < 35 | < 35 | < 35 | < 35 | < 35 | < 35 | < 35 | < 35 | < 35
4 | O=C(O)c1ccc2nc(N[C@H]3CC[C@H](O)CC3)c3nccn3c2c1 | < 35 | < 35 | < 35 | < 35 | < 35 | < 35 | < 35 | < 35 | < 35 | < 35 | < 35 | < 35 | < 35
5 | CCC[C@@H](NC(=O)c1ccc2nc(N[C@H]3CC[C@H](O)CC3)c3nccn3c2c1)c1ccccc1 | < 35 | < 35 | < 35 | < 35 | < 35 | < 35 | < 35 | < 35 | < 35 | < 35 | < 35 | < 35 | < 35
6 | C[C@H](NC(=O)c1ccc2nc(N[C@H]3CC[C@H](O)CC3)c3nccn3c2c1)c1ccccc1 | < 35 | < 35 | < 35 | < 35 | < 35 | < 35 | < 35 | < 35 | < 35 | < 35 | < 35 | < 35 | < 35
7 | O=C(NC1(c2ccccc2)CC1)c1ccc2nc(N[C@H]3CC[C@H](O)CC3)c3nccn3c2c1 | < 35 | < 35 | < 35 | < 35 | < 35 | < 35 | < 35 | < 35 | < 35 | < 35 | < 35 | < 35 | < 35
8 | O=C(NC1(c2ccccc2)CCC1)c1ccc2nc(N[C@H]3CC[C@H](O)CC3)c3nccn3c2c1 | < 35 | < 35 | < 35 | < 35 | < 35 | < 35 | < 35 | < 35 | < 35 | < 35 | < 35 | < 35 | < 35
9 | C[C@@H](NC(=O)c1ccc2nc(N[C@H]3CC[C@H](O)CC3)c3nccn3c2c1)c1ccccc1 | < 35 | < 35 | < 35 | < 35 | < 35 | 38.7 | < 35 | < 35 | < 35 | < 35 | < 35 | < 35 | 43.2
10 | O=C(NC1(c2ccc(F)cc2)CC1)c1ccc2nc(N[C@H]3CC[C@H](O)CC3)c3nccn3c2c1 | < 35 | < 35 | < 35 | < 35 | < 35 | < 35 | < 35 | < 35 | < 35 | < 35 | < 35 | < 35 | < 35
11 | NC(=O)c1ccc2nc(N[C@H]3CC[C@H](O)CC3)c3nccn3c2c1 | < 35 | < 35 | < 35 | < 35 | < 35 | < 35 | < 35 | < 35 | < 35 | < 35 | < 35 | < 35 | < 35
12 | CC[C@@H](NC(=O)c1ccc2nc(N[C@H]3CC[C@H](O)CC3)c3nccn3c2c1)c1ccccc1 | < 35 | < 35 | < 35 | < 35 | < 35 | < 35 | 48.7 | < 35 | < 35 | < 35 | < 35 | < 35 | < 35
